According to patent US20140050677A1, “Personal care and medicinal products incorporating bound organosulfur groups” (priority 2006, published 2014):
Entries after “also recorded” stand apart in the source; their conditions may differ. Read-outs that look alike come from different tables or passages of the source.

Legend:
[1] = cited from earlier work; for metabolism in blood: disappearing in the process; for Reaction in Blood Half-life: in vitro
[2] = cited from earlier work; for breath AMS and acetone production: after consumption; for time of disappearance from breath: after garlic consumption
[3] = after fresh garlic (e.g. 25 g) or pure allicin (60 mg); cited from earlier work
[4] = in vitro, in the presence of cysteine; cited from earlier work
[5] = test system: plaque; assay: Diluted allyl mercaptan poured over the toothbrush bristles (Applicant); type: in vivo; conditions: 1/200 in distilled water on toothbrush, a week of use
Excerpt: Because allyl mercaptan and propyl mercaptan are water soluble, it is easier to experiment with them than with diallyl disulfide or dipropyl disulfide (which are an oils).

[6] = test system: leukemia cell cultures; conditions: co-administered to reduce glutathione; cited from earlier work
[7] = test system: 13 types of bacteria; conditions: cited from earlier work
[8] = test system: cytochrome P-450 enzymes (e.g. CYP2E1) and flavin-containing monooxygenases; conditions: cited from earlier work
[9] = test system: pro-inflammatory cytokines (e.g. IL-1, TNF-alpha and IL-10); conditions: cited from earlier work
[10] = test system: plaque, mouth sores; assay: Evaluation of the antimicrobial toothpaste by Applicant and evaluators; type: in vivo; conditions: as active ingredient of experimental toothpastes
Protocol: I decided to next try mixing it with the toothpaste that I normally use by squeezing out the contents of a tube of Arm and Hammer Dental Care Toothpaste into a bowl, mixing in 10 ml (2 teaspoons) of 1/200 diluted allyl mercaptan, and then returning the toothpaste to the tube. […] Mixing with a conventional toothpaste provides an adequate carrier for the allium related compound. More generally, of course, any orally acceptable carrier suitable for application to the teeth may be used. […] This includes the carriers used in commercially available toothpastes, tooth powders, or other dentifrice products.
The resulting toothpaste has no significant “garlic” smell or taste. It left the mouth feeling very clean, so clean that unwaxed dental floss “squeaks” when slid up and down the side of each tooth.
Several friends and acquaintances were willing to try the toothpaste and provide feedback. Under a “Nondisclosure and Produce Evaluation Agreement” I supplied them with free samples to evaluate. The agreement specified that the samples are not for sale, that the inventive aspects of the samples are confidential, and that the samples have no warranty.
A commercial version of the toothpaste (using onion oil as the active ingredient) is now being manufactured under license by Viola Vitalis corporation of Dhaka, Bangladesh (a company that is partially owned by the applicant).

[11] = test system: Cu2^+ induced LDL oxidation; conditions: cited from earlier work
[12] = test system: NFkB; conditions: macrophages, cited from earlier work
[13] = test system: acetaminophen poisoning; conditions: mice, cited from earlier work
[14] = test system: total glutathione level of cells; conditions: in vitro administration of SAMC; cited from earlier work
[15] = during the first hour after consumption; cited from earlier work
[16] = test system: trypsin enzyme inhibitor; conditions: cysteine 2% by weight, soy flour heated at 65 degrees C. for 1 hour; cited from earlier work
[17] = cited from earlier work
[18] = test system: nematodes; conditions: cited from earlier work
[19] = test system: E-coli O157:H7; conditions: cited from earlier work
[20] = without nitrosothiol formation; cited from earlier work
[21] = target: NFkB signal transduction proteins p50 and P65 (Homo sapiens, UniProt P19838+Q04206); conditions: measured with a nitric oxide probe; cited from earlier work
[22] = test system: glutathione; conditions: daily dosage of 1000 mg, multiple myeloma patients; cited from earlier work
[23] = test system: liver glutathione level; conditions: cited from earlier work

C=CCSSC=CC[S+]([O-])CC=C (mixture of isomers) [ajoene]
metabolism in blood [1]: metabolize directly in blood to allyl mercaptan | breath AMS and acetone production [2]: produce both breath AMS and acetone

C=CCSC [AMS, allyl methyl sulfide]
time of disappearance from breath [2]: ~20 h

C=CCS[S+]([O-])CC=C (centres unmarked) [Allicin, DiAllylThioSulfinate]
detectability in blood, urine, or stool [3]: undetectable | Reaction in Blood Half-life [1]: <1 min | time for metabolism to allyl mercaptan ([1]; red blood cells exposed to allicin): less than one minute | Reaction with Cysteine Half-life [4]: <1 min

C=CCS [AllylSH, AllylThiol]
Reaction with Cysteine Half-life [4]: 80 min | plaque [5]: reduction in plaque | time of disappearance from breath [2]: ≤ 1 h

CCCCS(=N)(=O)CCC(N)C(=O)O (centres unmarked) [BSO, buthionine sulfoximine]
cytotoxicity of chemotherapeutic arsenicals [6]: increase the cytotoxicity

O=C(N[C@H](CO)[C@H](O)c1ccc([N+](=O)[O-])cc1)C(Cl)Cl [Chloramphenicol]
average zone of inhibition [7]: 20 mm | species inhibited [7]: 12/13

C=CCSSCC=C [DADS, Diallyl Disulfide]
metabolism in blood [1]: metabolize directly in blood to allyl mercaptan | Reaction in Blood Half-life [1]: 60 min | activity of the enzymes producing allicin from DADS [8]: up to 121 pmol/min/pmol CYP2D6 | conversion of DADS to allicin ([8]; in 30 minutes): approximately 30% | Reaction with Cysteine Half-life [4]: 45 min | breath AMS and acetone production [2]: produce both breath AMS and acetone | expression of pro-inflammatory cytokines [9]: inhibit the expression

C=CCSCC=C [DAS]
breath AMS and acetone production [2]: only produces breath acetone

CCCSSCCC [DPDS, di-n-propyl disulfide]
performance relative to the allyl mercaptan toothpaste [10]: performed similarly | expression of pro-inflammatory cytokines [9]: inhibit the expression

C=CCSC[C@H](NC(C)=O)C(=O)O [N-acetyl-S-allylcysteine]
effect on Cu2^+ induced LDL oxidation [11]: significantly reduce

N[C@@H](CSN=O)C(=O)O [S-Nitrosocysteine]
donor concentration that nearly completely inhibits the activation of NFkB ([12]; nitric oxide donor): 1 micro mole

C=CCSC[C@H](N)C(=O)O [S-allylcysteine]
effect on Cu2^+ induced LDL oxidation [11]: significantly reduce | breath AMS and acetone production [2]: produces no breath AMS or acetone

C=CCSSC[C@H](N)C(=O)O [SAMC, S-AllylMercaptoCysteine]
metabolism in blood [1]: metabolize directly in blood to allyl mercaptan | Reaction in Blood Half-life [1]: 3 min | effect on Cu2^+ induced LDL oxidation [11]: significantly reduce | protection from acetaminophen poisoning, pretreatment ([13]; pretreatment): protect mice from acetaminophen poisoning | protection from acetaminophen, post treatment ([13]; single dose 200 mg/kg shortly after exposure): protective | total glutathione level of cells [14]: significantly increase; also recorded: significant increases the total glutathione level | breath AMS and acetone production [2]: produce both breath AMS and acetone

[AsH3] [arsenic]
fraction excreted directly from the liver to the bile [15]: ~40%

N[C@@H](CS)C(=O)O [cysteine, Cysteine]
deactivation of the trypsin enzyme inhibitor [16]: over 90% | pKa [17]: approximately 8.5

C=CCSSSCC=C [diallyl trisulfide]
metabolism in blood [1]: metabolize directly in blood to allyl mercaptan | breath AMS and acetone production [2]: produce both breath AMS and acetone

CCCS[S+]([O-])CCC (centres unmarked) [dipropyl thiosulfinate, Dipropyl Thiosulfinate]
nematicidal activity ranking [18]: most effective compound found

C=CCS[S+](C)[O-] (centres unmarked) [methyl allyl thiosulfinate]
effectiveness against E-coli O157:H7 [19]: effective

CS[S+](C)[O-] (centres unmarked) [methyl methane thiosulfinate, Methyl methanethiosulfinate]
effectiveness against E-coli O157:H7 [19]: effective

[N]=O [nitric oxide]
half life in circulation [20]: about 5 seconds | concentration that inhibited DNA binding activity of p50 and P65 [21]: 20-100 nano mole | concentration that nearly completely inhibits the activation of NFkB [12]: less than 1 micro-mole

O=C1O[C@H]([C@@H](O)CO)C(O)=C1O [vitamin C, ascorbic acid]
mean percentage decrease of glutathione [22]: 60% | cytotoxicity of chemotherapeutic arsenicals [6]: increase the cytotoxicity

S-allylcysteine sulfoxide [alliin]
effect on Cu2^+ induced LDL oxidation [11]: significantly reduce

sodium arsenate
liver glutathione level ([23]; protein deficient (6%) rats, unexposed controls 74): 134 micrograms per gram | liver glutathione level ([23]; well fed rats (18% protein), unexposed controls 88): 123 micrograms per gram
